Data published in patent US20230074545A1, “TREATMENT OF CANCER WITH CDK12/13 INHIBITORS” (Kinnate Biopharma Inc., priority 2019, published 2023).

How the values were obtained:
Experiment in all cases: Radiometric kinase panel
Assay type in all cases: biochemical
[1] = biological target: T1, ACK1 (Homo sapiens, UniProt Q07912)
T1 construct: either as full-length or enzymatically active fragments; purchased ProQinase GmbH (Reaction Biology)
Summary of the method: (§1)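 Activity was measured radiometrically from [gamma-33P]-ATP incorporation into substrate. The kinases were recombinant human GST- or His-tagged proteins, full-length or active fragments, expressed in Sf9 or E. coli. Compound in 10% DMSO was added before the enzyme/substrate mix, which started the reaction.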

[2] = biological target: T2, BMX (Homo sapiens, UniProt P51813)
T2 construct: either as full-length or enzymatically active fragments; purchased ProQinase GmbH (Reaction Biology)
Summary of the method: as §1

[3] = biological target: T3, CDK19/CycC (Homo sapiens, UniProt Q9BWU1)
T3 construct: either as full-length or enzymatically active fragments; purchased ProQinase GmbH (Reaction Biology); host or cells: Sf9 insect cells or E. coli (not specified per kinase)
T3 sequence (Q9BWU1 whole entry, the tested form may be a part): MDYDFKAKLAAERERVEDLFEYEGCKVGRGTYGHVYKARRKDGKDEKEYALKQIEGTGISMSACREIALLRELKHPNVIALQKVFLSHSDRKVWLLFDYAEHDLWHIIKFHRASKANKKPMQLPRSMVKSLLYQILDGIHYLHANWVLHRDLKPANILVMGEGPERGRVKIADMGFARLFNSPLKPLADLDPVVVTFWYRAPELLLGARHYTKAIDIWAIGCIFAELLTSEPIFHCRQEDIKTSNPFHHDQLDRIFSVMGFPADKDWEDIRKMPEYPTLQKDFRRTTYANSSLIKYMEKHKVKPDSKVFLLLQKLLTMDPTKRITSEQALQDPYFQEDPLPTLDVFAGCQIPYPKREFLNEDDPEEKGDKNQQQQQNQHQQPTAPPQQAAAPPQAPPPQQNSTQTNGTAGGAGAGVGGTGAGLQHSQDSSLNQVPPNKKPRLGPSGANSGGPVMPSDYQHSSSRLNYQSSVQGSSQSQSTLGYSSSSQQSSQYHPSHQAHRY
T3 sequence (P24863 whole entry partner, the tested form may be a part): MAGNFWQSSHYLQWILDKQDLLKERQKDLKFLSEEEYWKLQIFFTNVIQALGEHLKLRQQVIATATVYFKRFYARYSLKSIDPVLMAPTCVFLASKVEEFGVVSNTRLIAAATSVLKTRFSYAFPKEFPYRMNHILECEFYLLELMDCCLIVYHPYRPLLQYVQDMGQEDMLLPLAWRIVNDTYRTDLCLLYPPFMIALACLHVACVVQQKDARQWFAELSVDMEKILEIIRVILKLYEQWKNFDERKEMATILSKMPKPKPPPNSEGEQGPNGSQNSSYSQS
Summary of the method: as §1

[4] = biological target: T4, CDK8/CycC (Homo sapiens, UniProt P49336)
T4 construct: either as full-length or enzymatically active fragments; purchased ProQinase GmbH (Reaction Biology)
Summary of the method: as §1

[5] = biological target: T5, EEF2K (Homo sapiens, UniProt O00418)
T5 construct: either as full-length or enzymatically active fragments; purchased ProQinase GmbH (Reaction Biology)
Summary of the method: as §1

[6] = biological target: T6, EPHA8 (Homo sapiens, UniProt P29322)
T6 construct: either as full-length or enzymatically active fragments; purchased ProQinase GmbH (Reaction Biology); host or cells: Sf9 insect cells or E. coli (not specified per kinase)
Summary of the method: as §1

[7] = biological target: T7, EPHB2 (Homo sapiens, UniProt P29323)
T7 construct: purchased ProQinase GmbH (Reaction Biology); host or cells: Sf9 insect cells or E. coli (not specified per kinase)
T7 sequence (P29323 19-1055): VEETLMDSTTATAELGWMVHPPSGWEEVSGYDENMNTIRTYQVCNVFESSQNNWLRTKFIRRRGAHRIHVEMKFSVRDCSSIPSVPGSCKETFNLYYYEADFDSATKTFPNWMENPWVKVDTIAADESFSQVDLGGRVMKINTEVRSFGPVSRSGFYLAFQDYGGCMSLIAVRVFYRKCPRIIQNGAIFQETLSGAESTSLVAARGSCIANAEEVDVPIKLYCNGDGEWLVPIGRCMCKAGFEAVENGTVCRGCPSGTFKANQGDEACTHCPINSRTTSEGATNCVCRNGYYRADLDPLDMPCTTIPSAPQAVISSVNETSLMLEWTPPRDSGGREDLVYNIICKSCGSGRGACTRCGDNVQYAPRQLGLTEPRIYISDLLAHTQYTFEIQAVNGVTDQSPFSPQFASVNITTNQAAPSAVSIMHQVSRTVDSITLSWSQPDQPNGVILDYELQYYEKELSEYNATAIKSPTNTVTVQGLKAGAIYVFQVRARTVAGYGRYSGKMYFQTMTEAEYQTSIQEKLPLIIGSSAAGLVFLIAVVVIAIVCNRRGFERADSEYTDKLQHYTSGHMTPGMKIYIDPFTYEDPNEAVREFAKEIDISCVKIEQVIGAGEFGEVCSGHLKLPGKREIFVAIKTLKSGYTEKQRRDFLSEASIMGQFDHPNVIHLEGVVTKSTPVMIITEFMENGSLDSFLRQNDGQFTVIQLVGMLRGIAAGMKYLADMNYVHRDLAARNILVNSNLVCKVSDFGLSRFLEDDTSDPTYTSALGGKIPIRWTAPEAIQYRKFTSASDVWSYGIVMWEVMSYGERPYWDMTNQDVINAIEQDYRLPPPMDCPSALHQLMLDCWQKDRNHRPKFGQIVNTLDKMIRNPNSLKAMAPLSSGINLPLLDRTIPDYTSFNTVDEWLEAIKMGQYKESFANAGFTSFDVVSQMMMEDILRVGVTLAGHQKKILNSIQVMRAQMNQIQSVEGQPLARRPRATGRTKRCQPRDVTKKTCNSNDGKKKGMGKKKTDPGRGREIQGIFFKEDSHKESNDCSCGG
Summary of the method: as §1

[8] = biological target: T8, ERK5 (Homo sapiens, UniProt Q13164)
T8 construct: either as full-length or enzymatically active fragments; purchased ProQinase GmbH (Reaction Biology)
Summary of the method: as §1

[9] = biological target: T9, HIPK1 (Homo sapiens, UniProt Q86Z02)
T9 construct: either as full-length or enzymatically active fragments; purchased ProQinase GmbH (Reaction Biology); host or cells: Sf9 insect cells or E. coli (not specified per kinase)
T9 sequence (Q86Z02 whole entry, the tested form may be a part): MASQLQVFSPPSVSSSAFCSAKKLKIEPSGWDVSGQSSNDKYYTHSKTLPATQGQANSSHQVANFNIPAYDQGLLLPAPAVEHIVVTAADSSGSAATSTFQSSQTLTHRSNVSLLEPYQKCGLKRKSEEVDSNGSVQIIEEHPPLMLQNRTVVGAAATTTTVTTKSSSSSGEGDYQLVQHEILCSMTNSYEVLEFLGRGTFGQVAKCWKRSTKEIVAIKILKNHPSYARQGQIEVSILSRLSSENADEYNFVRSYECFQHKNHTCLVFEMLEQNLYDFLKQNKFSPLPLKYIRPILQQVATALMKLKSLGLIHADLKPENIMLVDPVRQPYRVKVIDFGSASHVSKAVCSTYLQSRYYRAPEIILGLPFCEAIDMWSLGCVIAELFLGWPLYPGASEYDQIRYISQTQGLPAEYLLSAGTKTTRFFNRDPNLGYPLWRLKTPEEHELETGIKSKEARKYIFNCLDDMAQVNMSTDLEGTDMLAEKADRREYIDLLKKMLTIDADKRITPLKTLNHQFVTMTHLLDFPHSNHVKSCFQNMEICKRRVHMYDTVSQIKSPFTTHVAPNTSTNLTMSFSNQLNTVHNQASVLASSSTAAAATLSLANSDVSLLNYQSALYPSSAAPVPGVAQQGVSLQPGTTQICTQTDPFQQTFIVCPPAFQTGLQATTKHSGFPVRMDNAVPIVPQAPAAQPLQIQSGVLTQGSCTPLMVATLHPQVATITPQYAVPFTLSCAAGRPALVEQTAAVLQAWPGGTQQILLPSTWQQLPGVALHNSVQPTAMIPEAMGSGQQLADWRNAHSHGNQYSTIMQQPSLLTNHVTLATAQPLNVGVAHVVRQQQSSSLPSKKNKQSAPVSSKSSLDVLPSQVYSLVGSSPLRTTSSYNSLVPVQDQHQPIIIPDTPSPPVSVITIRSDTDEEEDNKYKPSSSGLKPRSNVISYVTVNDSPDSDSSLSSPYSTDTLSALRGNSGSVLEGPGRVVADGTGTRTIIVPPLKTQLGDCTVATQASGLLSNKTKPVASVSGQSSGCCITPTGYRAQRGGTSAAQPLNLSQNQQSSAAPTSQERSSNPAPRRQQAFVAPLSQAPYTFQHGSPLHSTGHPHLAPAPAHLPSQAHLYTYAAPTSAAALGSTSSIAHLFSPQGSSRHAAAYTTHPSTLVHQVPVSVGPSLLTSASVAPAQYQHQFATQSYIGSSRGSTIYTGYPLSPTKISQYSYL
Summary of the method: as §1

[10] = biological target: T10, HIPK3 (Homo sapiens, UniProt Q9H422)
T10 construct: either as full-length or enzymatically active fragments; purchased ProQinase GmbH (Reaction Biology)
Summary of the method: as §1

[11] = biological target: T11, JAK1 (Homo sapiens, UniProt P23458)
T11 construct: purchased ProQinase GmbH (Reaction Biology)
Summary of the method: as §1

[12] = biological target: T12, JNK3 (Homo sapiens, UniProt P53779)
T12 construct: either as full-length or enzymatically active fragments; purchased ProQinase GmbH (Reaction Biology)
T12 sequence (P53779 whole entry, the tested form may be a part): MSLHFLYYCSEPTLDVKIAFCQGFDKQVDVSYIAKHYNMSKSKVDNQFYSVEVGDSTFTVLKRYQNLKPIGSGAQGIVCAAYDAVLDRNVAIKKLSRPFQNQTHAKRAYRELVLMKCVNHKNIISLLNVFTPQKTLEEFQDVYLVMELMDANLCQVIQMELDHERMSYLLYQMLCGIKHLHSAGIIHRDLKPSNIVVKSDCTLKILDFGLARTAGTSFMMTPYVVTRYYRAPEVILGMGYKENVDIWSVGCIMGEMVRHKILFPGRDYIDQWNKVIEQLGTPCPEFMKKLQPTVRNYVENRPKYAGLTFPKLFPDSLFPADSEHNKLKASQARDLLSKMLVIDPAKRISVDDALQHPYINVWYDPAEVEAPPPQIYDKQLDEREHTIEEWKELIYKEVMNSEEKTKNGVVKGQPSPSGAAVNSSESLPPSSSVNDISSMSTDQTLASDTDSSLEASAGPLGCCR
Summary of the method: as §1

[13] = biological target: T13, MAP3K11 (Homo sapiens, UniProt Q16584)
T13 construct: either as full-length or enzymatically active fragments; purchased ProQinase GmbH (Reaction Biology)
Summary of the method: as §1

[14] = biological target: T14, MAP4K2 (Homo sapiens, UniProt Q12851)
T14 construct: purchased ProQinase GmbH (Reaction Biology)
T14 sequence (Q12851 whole entry): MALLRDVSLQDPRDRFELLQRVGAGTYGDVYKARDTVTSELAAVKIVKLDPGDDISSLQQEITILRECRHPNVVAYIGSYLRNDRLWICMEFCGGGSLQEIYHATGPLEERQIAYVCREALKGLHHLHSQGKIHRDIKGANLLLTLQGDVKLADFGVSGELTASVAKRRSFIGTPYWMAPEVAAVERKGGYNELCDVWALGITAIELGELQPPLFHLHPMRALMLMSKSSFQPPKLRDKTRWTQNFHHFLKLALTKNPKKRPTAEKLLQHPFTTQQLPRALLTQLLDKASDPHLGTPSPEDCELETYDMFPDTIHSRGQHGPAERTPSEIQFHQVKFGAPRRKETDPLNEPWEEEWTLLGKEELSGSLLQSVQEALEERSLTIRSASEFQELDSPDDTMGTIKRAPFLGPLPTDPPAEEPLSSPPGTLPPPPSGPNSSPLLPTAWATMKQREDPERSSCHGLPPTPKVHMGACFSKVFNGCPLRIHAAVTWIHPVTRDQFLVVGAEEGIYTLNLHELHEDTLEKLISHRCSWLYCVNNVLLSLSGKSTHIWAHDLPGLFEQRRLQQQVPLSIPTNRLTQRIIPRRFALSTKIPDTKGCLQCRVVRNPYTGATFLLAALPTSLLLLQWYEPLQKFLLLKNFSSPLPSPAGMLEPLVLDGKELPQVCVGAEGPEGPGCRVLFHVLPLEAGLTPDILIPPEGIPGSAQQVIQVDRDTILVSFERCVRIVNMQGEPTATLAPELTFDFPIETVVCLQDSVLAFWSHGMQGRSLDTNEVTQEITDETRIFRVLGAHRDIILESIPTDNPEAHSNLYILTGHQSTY
Summary of the method: as §1

[15] = biological target: T15, MKNK1 (Homo sapiens, UniProt Q9BUB5)
T15 construct: purchased ProQinase GmbH (Reaction Biology)
Summary of the method: as §1

[16] = biological target: T16, MLK4 (Homo sapiens, UniProt Q5TCX8)
T16 construct: either as full-length or enzymatically active fragments; purchased ProQinase GmbH (Reaction Biology); host or cells: Sf9 insect cells or E. coli (not specified per kinase)
Summary of the method: as §1

[17] = biological target: T17, MST3 (Homo sapiens, UniProt Q9Y6E0)
T17 construct: either as full-length or enzymatically active fragments; purchased ProQinase GmbH (Reaction Biology)
Summary of the method: as §1

[18] = biological target: T18, MST4 (Homo sapiens, UniProt Q9P289)
T18 construct: either as full-length or enzymatically active fragments; purchased ProQinase GmbH (Reaction Biology)
Summary of the method: as §1

[19] = biological target: T19, MYLK (Homo sapiens, UniProt Q15746)
T19 construct: either as full-length or enzymatically active fragments; purchased ProQinase GmbH (Reaction Biology)
Summary of the method: as §1

[20] = biological target: T20, NEK11 (Homo sapiens, UniProt Q8NG66)
T20 construct: either as full-length or enzymatically active fragments; purchased ProQinase GmbH (Reaction Biology)
Summary of the method: as §1

[21] = biological target: T21, PLK3 (Homo sapiens, UniProt Q9H4B4)
T21 construct: either as full-length or enzymatically active fragments; purchased ProQinase GmbH (Reaction Biology); host or cells: Sf9 insect cells or E. coli
Summary of the method: as §1

[22] = biological target: T22, PRKD2 (Homo sapiens, UniProt Q9BZL6)
T22 construct: either as full-length or enzymatically active fragments; purchased ProQinase GmbH (Reaction Biology); host or cells: Sf9 insect cells or E. coli
Summary of the method: as §1

[23] = biological target: T23, RIPK2 (Homo sapiens, UniProt O43353)
T23 construct: either as full-length or enzymatically active fragments; purchased ProQinase GmbH (Reaction Biology)
Summary of the method: as §1

[24] = biological target: T24, RON (Homo sapiens, UniProt Q04912)
T24 construct: purchased ProQinase GmbH (Reaction Biology)
Summary of the method: as §1

[25] = biological target: T25, RPS6KA6 (Homo sapiens, UniProt Q9UK32)
T25 construct: purchased ProQinase GmbH (Reaction Biology)
Summary of the method: as §1

[26] = biological target: T26, STK17A (Homo sapiens, UniProt Q9UEE5)
T26 construct: either as full-length or enzymatically active fragments; purchased ProQinase GmbH (Reaction Biology)
T26 sequence (Q9UEE5 whole entry, the tested form may be a part): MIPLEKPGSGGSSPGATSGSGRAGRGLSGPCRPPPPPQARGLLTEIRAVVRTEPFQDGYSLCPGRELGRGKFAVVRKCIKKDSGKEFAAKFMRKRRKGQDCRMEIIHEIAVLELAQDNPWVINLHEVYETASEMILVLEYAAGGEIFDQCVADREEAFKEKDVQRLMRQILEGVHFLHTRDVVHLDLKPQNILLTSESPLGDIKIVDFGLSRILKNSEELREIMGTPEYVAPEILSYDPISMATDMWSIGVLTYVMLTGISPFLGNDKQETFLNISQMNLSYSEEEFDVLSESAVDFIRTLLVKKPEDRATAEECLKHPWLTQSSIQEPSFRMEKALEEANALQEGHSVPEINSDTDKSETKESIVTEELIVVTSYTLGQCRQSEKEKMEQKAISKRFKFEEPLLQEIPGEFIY
Summary of the method: as §1

[27] = biological target: T27, TRKA (Homo sapiens, UniProt P04629)
T27 construct: either as full-length or enzymatically active fragments; purchased ProQinase GmbH (Reaction Biology)
Summary of the method: as §1

[28] = biological target: T28, TSF1 (Homo sapiens, UniProt O75716)
T28 construct: either as full-length or enzymatically active fragments; purchased ProQinase GmbH (Reaction Biology)
T28 sequence (O75716 whole entry, the tested form may be a part): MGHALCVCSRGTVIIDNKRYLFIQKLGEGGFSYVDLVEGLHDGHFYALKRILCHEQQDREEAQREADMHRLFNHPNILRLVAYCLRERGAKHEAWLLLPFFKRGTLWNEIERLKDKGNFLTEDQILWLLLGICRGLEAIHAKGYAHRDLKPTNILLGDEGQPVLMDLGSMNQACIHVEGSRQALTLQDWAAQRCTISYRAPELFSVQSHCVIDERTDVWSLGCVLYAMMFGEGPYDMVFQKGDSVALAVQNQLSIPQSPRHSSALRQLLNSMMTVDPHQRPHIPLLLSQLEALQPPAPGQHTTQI
Summary of the method: as §1

[29] = biological target: T29, TYK2 (Homo sapiens, UniProt P29597)
T29 construct: either as full-length or enzymatically active fragments; purchased ProQinase GmbH (Reaction Biology)
Summary of the method: as §1

[30] = biological target: T30, VEGFR1 (Homo sapiens, UniProt P17948)
T30 construct: either as full-length or enzymatically active fragments; purchased ProQinase GmbH (Reaction Biology); host or cells: Sf9 insect cells or E. coli (not specified per kinase)
Summary of the method: as §1

[31] = biological target: T31, WNK2 (Homo sapiens, UniProt Q9Y3S1)
T31 construct: either as full-length or enzymatically active fragments; purchased ProQinase GmbH (Reaction Biology)
Summary of the method: as §1

## C=CC(=O)Nc1ccc(C(=O)N2CC[C@@H](Nc3ncc(C#N)cn3)C2)cc1 [Compound 4, (R)-N-(4-(3-((5-cyanopyrimidin-2-yl)amino)pyrrolidine-1-carbonyl)phenyl)acrylamide]
[1]
  inhibition at 1 µM: 6%
[2]
  inhibition at 1 µM: -4%
[3]
  inhibition at 1 µM: 10%
[4]
  inhibition at 1 µM: 3%
[5]
  inhibition at 1 µM: 15%
[6]
  inhibition at 1 µM: 9%
[7]
  inhibition at 1 µM: 1%
[8]
  inhibition at 1 µM: 6%
[9]
  inhibition at 1 µM: 8%
[10]
  inhibition at 1 µM: -7%
[11]
  inhibition at 1 µM: -1%
[12]
  inhibition at 1 µM: -4%
[13]
  inhibition at 1 µM: -7%
[14]
  inhibition at 1 µM: -1%
[15]
  inhibition at 1 µM: -2%
[16]
  inhibition at 1 µM: 9%
[17]
  inhibition at 1 µM: 3%
[18]
  inhibition at 1 µM: 6%
[19]
  inhibition at 1 µM: 3%
[20]
  inhibition at 1 µM: -5%
[21]
  inhibition at 1 µM: 13%
[22]
  inhibition at 1 µM: 12%
[23]
  inhibition at 1 µM: 5%
[24]
  inhibition at 1 µM: -1%
[25]
  inhibition at 1 µM: -3%
[26]
  inhibition at 1 µM: -4%
[27]
  inhibition at 1 µM: -7%
[28]
  inhibition at 1 µM: 6%
[29]
  inhibition at 1 µM: 6%
[30]
  inhibition at 1 µM: 8%
[31]
  inhibition at 1 µM: -8%
